Results from paper PMC6761391, “Blockade of Mas Receptor or Mas-Related G-Protein Coupled Receptor Type D Reduces Portal Pressure in Cirrhotic but Not in Non-cirrhotic Portal Hypertensive Rats” (Frontiers in Physiology, 2019).
Structures can show the parent of a compound that is named as a salt. Non-standard residues stand in square brackets, D forms with d. Residues, ends and D or L forms follow the SMILES beside them.

Columns and labels:
[1] = In vivo angiotensin (1-7) peptide metabolism assay (plasma concentration by radioimmunoassay); details: BDL rats, 10 μg/kg i.v. bolus; for time of peak plasma concentration post-injection: blood at 30 s, 1, 2, 5 min, Ang-(1-7) radioimmunoassay (cross-reactivity for A779 and D-Pro not determined); for time of peak plasma concentration post-injection / time for circulating peptide levels to return to baseline levels after injection: 4 rats per group, plasma; for time for circulating peptide levels to return to baseline levels after injection: Ang-(1-7) radioimmunoassay; for fate in the rat circulation following a bolus injection: circulating concentrations by radioimmunoassay
Procedure: To determine the longevity of the angiotensin peptides in the rat circulation, a separate set of experiments was carried out using BDL rats. Four weeks after BDL, the rats were anesthetized with ketamine/xylazine mixture and the femoral artery and vein were cannulated using PE-10 catheters as described previously ([Grace et al., 2013]). After 30 min of stabilization, 1 ml of blood was drawn from the femoral artery as the baseline sample into an Eppendorf tube containing protease inhibitor mix (20 μl/ml of blood: 50 mmol/L Na2 EDTA, 0.2 mol/L N-ethylmaleimide, 21,000 U/ml aprotonin, 5 mg/ml leupeptin, and 1 mg/ml pepstatin; prepared fresh daily and kept on ice) to prevent breakdown of angiotensin peptides. Injection of either MasR or MrgD blockers, A779 or D-Pro (10 μg/kg), respectively, was performed thereafter via the femoral vein catheter. Blood samples were collected at 30 s, 1, 2, and 5 min after injection. A separate group of rats was injected with Ang-(1-7) peptide (10 μg/kg) and blood was collected as before. After completion of the experiment, the rats were euthanized by exsanguination. Blood samples were centrifuged at 4,000 rpm for 10 min to harvest plasma. Radioimmunoassay for Ang-(1-7) (Prosearch International, Australia, Pty Ltd) was performed to determine plasma concentration of peptide blockers and Ang-(1-7) at different time points. Twelve BDL rats were used for the experiment, with four rats in each of the three treatment groups. The extent of cross-reactivity for D-Ala (A779) and D-Pro was not determined for the Ang-(1-7) radioimmunoassay.

[2] = tested on: cirrhotic carbon tetrachloride (CCl4) injected rats; test: Portal pressure (PP) measurement in cirrhotic CCl4 rats after intravenous bolus injection; format: in vivo, Sprague Dawley rats
Procedure: (§1) Six-week-old male Sprague Dawley rats (200–250 g BW) were used to induce cirrhosis and PHT by injections of carbon tetrachloride (CCl4) as described previously ([Fallowfield et al., 2014]). Rats were housed in a controlled environment as described above. CCl4 was administered twice weekly via intraperitoneal injections, at a dose of 1 ml/kg, mixed with 1:1 ratio with olive oil. After 10 weeks of CCl4 administration, the rats were used for receptor blocker infusion experiments.
(§2) Four weeks after BDL, 10 weeks after CCl4 and 2 weeks after PPVL, the rats were anesthetized with ketamine/xylazine mixture (75 and 10 mg/kg BW, respectively, Therapon Pty Ltd). A median laparotomy was performed, and a small PE 10 polyethylene catheter (Microtube Extrusions, NSW, Australia) was inserted into a small ileocecal vein and advanced to the portal vein to measure PP. A skin incision was made in the left inner thigh to identify the left femoral artery and cannulated with a PE 10 catheter to measure the mean arterial pressure (MAP). Portal vein and femoral artery catheters were connected to a highly sensitive pressure transducer (Zultek Engineering, Melbourne, VIC, Australia). The left femoral vein was cannulated with a similar PE 10 catheter for bolus injections of the receptor blockers. After insertion of the catheters, the rats were allowed to stabilize hemodynamically for 30 min prior to interventions.
The baseline values of PP and MAP were recorded prior to injection of the drugs. For a single receptor blocker experiments, either MasR blocker A779 (10 μg/kg) ([Grace et al., 2013]), MrgD blocker D-Pro (10 μg/kg), or AT2R blocker PD123319 (1 mg/kg) ([Yang et al., 2011]) was administered intravenously via the femoral vein catheter as a single bolus injection. The dose was calculated for each individual rat according to body weight. The bolus injection was prepared by dissolving a stock solution of […] (A779 or D-Pro) or 10 mg/ml (PD123319) in 0.9% NaCl to make a minimum injectable volume of 0.25 ml. This is to avoid variations in pressure due to adding volume to the circulation. After the bolus injection of the drug, the catheter was slowly flushed with 0.25 ml 20 IU/ml heparinized saline. Measurement of PP and MAP was continued for additional 30 min after injection (Figure 2A). Each treatment group of BDL, CCl4, and PPVL consisted of six to seven rats. For each model, a separate control group of animals (n = 6 per group) received saline injections for comparison with the treatment effects.
A separate set of experiments were carried out in the two cirrhotic PHT rat models (BDL and CCl4) to investigate whether the detrimental effects of AT1R blocker losartan on systemic arterial pressure can be counteracted by a second injection of either MasR or MrgD blockers; A779 or D-Pro, respectively. In this study, a bolus injection of losartan was administered and 20 min later, a bolus injection of either A779 or D-Pro was given. The pressure measurement was carried out for additional 20 min after the second injection (Figure 2B). A total of 18 BDL and 18 CCl4 rats were used (n = 6 per treatment group).

[3] = tested on: cirrhotic bile duct ligated (BDL) rats; test: Portal pressure (PP) measurement in cirrhotic bile duct ligated (BDL) rats after intravenous bolus injection; format: in vivo, Sprague Dawley rats
Procedure: (§3) Eight-week-old male Sprague Dawley rats (300–350 g BW) underwent bile duct ligation surgery (BDL) to induce cirrhosis and PHT. Rats were housed in a controlled environment with 12:12-h light to dark cycle with controlled temperature (22–24°C) and fed standard rat chow ad libitum (Norco, Lismore NSW, Australia) and water. After 1 week of acclimatization, the rats were anesthetized with isoflurane gaseous anesthesia (Therapon Pty Ltd., Victoria, Australia). The rats were also given a single dose of carprofen (5 mg/kg, Rimadyl, Australia) subcutaneously prior to surgery to limit post-operative discomfort. BDL surgery was performed as previously described ([Herath et al., 2007]). Briefly, a midline incision was made in the abdomen to enter the peritoneal cavity. The common bile duct was located and double ligated with 4/0 silk suture. The bile duct was then transacted between two ligatures. Intraoperatively, animals were kept warm on a heat pad and received 0.9% NaCl 10 ml/kg. The abdominal wall was closed in two layers using sterile 4/0 silk suture. Four weeks after BDL surgery, the rats were used for receptor blocker infusion experiments as described below.
as §2
(§4) The baseline values of PP and MAP were recorded prior to injection of the drugs. For a single receptor blocker experiments, either MasR blocker A779 (10 μg/kg) ([Grace et al., 2013]), MrgD blocker D-Pro (10 μg/kg), or AT2R blocker PD123319 (1 mg/kg) ([Yang et al., 2011]) was administered intravenously via the femoral vein catheter as a single bolus injection. The dose was calculated for each individual rat according to body weight. The bolus injection was prepared by dissolving a stock solution of […] (A779 or D-Pro) or 10 mg/ml (PD123319) in 0.9% NaCl to make a minimum injectable volume of 0.25 ml. This is to avoid variations in pressure due to adding volume to the circulation. […]

[4] = tested on: non-cirrhotic partial portal vein ligated (PPVL) rats; test: Portal pressure (PP) measurement in non-cirrhotic PPVL rats after intravenous bolus injection; format: in vivo, Sprague Dawley rats; details: non-cirrhotic PPVL rat model; single i.v. bolus (A779, D-Pro 10 μg/kg; PD123319 1 mg/kg)
Procedure: (§5) Eight-week-old male Sprague Dawley rats (300–350 g BW) were used to induce non-cirrhotic portal hypertension by partial portal vein ligation (PPVL) surgery as described previously ([Kahn et al., 1988]). Briefly, under gaseous anesthesia, a median laparotomy was performed and the portal vein was identified. A 19G needle was placed alongside the length of the portal vein, and a 4/0 silk suture was tied around the portal vein and the needle. The needle was then removed creating a calibrated stenosis in the portal vein, partially obstructing the portal flow. The abdominal wall was closed in two layers using sterile 4/0 silk suture. Two weeks after PPVL, the rats were used for receptor blocker infusion experiments.
(§6) Four weeks after BDL, 10 weeks after CCl4 and 2 weeks after PPVL, the rats were anesthetized with ketamine/xylazine mixture (75 and 10 mg/kg BW, respectively, Therapon Pty Ltd). A median laparotomy was performed, and a small PE 10 polyethylene catheter (Microtube Extrusions, NSW, Australia) was inserted into a small ileocecal vein and advanced to the portal vein to measure PP. […]
(§7) The baseline values of PP and MAP were recorded prior to injection of the drugs. […] The dose was calculated for each individual rat according to body weight. […]

[5] = tested on: cirrhotic carbon tetrachloride (CCl4) injected rats; test: Mean arterial pressure (MAP) measurement in CCl4 rats; format: in vivo, Sprague Dawley rats; details: CCl4 model
Procedure: as §1, §2, §4

[6] = tested on: cirrhotic bile duct ligated (BDL) rats; test: Mean arterial pressure (MAP) measurement in BDL rats; format: in vivo, Sprague Dawley rats; details: BDL model
Procedure: as §3
as §2, with “The left femoral vein was cannulated with a similar PE 10 catheter for bolus injections of the receptor blockers. After insertion of the catheters, the rats were allowed to stabilize hemodynamically for 30 min prior to interventions.” left out
as §7

[7] = tested on: non-cirrhotic partial portal vein ligated (PPVL) rats; test: Mean arterial pressure (MAP) measurement in PPVL rats; format: in vivo, Sprague Dawley rats; details: single i.v. bolus (A779, D-Pro 10 μg/kg; PD123319 1 mg/kg)
Procedure: as §5, §6, §7

MrgD = details: HEK293 cells transfected with MrgD; ref Tetzner et al., 2016; cited from earlier work
Excerpt: There is some evidence that ATR2 also mediates Ang-(1-7) action. This was based on observations that the vasodilatory effects of Ang-(1-7) in vivo ([Heitsch et al., 2001]) and ex vivo and in vitro ([Tesanovic et al., 2010]; [Grace et al., 2013]) were inhibited by AT2R blockade with PD123319.

MasR = details: ref Santos et al., 2003; cited from earlier work
Excerpt: Although it is well known that Ang (1-7) produces its effects by binding to MasR and MrgD ([Santos et al., 2003]; [Tetzner et al., 2016]), early cell culture studies have reported some actions of Ang-(1-7) were mediated via the subtypes of AT1R ([Muthalif et al., 1998]; [[…] et al., 2001]). Some studies also proposed that MasR may interact with AT1R by receptor hetero-dimerization or alterations in post-receptor signaling ([Castro et al., 2005]; [Kostenis et al., 2005]; [Tesanovic et al., 2010]; [Castelo-Branco et al., 2017]; [O'Neill et al., 2017]), which in turn leads to the inhibition o ...

[8] = CCl4 model, single i.v. bolus (A779, D-Pro 10 μg/kg; PD123319 1 mg/kg)
[9] = CCl4 model, losartan 1 mg/kg i.v. bolus
[10] = BDL model, losartan 1 mg/kg i.v. bolus
[11] = losartan 1 mg/kg i.v. bolus, 12 to 14 rats

CC[C@H](C)[C@H](NC(=O)[C@H](Cc1ccc(O)cc1)NC(=O)[C@@H](NC(=O)[C@H](CCCNC(=N)N)NC(=O)[C@@H](N)CC(=O)O)C(C)C)C(=O)N[C@@H](Cc1c[nH]cn1)C(=O)N1CCC[C@H]1C(=O)O [Ang-(1-7), Angiotensin (1-7)]
time of peak plasma concentration post-injection [1]: 2 min | time for circulating peptide levels to return to baseline levels after injection [1]: ≤ 5 min

CC[C@H](C)[C@H](NC(=O)[C@H](Cc1ccc(O)cc1)NC(=O)[C@@H](NC(=O)[C@H](CCCNC(=N)N)NC(=O)[C@@H](N)CC(=O)O)C(C)C)C(=O)N[C@@H](Cc1cnc[nH]1)C(=O)N[C@H](C)C(=O)O [A779] (H-DRVYIH[dA]-OH)
time of peak plasma concentration post-injection [1]: 2 min | fate in the rat circulation following a bolus injection [1]: rapidly degraded in the rat circulation | time for circulating peptide levels to return to baseline levels after injection [1]: ≤ 5 min

Cc1cc(Cn2cnc3c2C[C@@H](C(=O)O)N(C(=O)C(c2ccccc2)c2ccccc2)C3)ccc1N(C)C [PD123319]
maximum reduction in portal pressure [2, 8]: 4.8% | time for which the reduction in PP persisted after injection [2, 8]: up to 20 min | change in portal pressure (PP) from baseline ([2]; CCl4 rats, single i.v. bolus (A779, D-Pro 10 μg/kg; PD123319 1 mg/kg), measured at 5 min post-injection, six to seven rats per group): significant reduction in PP | portal pressure reduction ([3]; BDL rats, PD123319 1 mg/kg i.v. bolus): not statistically significant | effect on portal pressure (PP) [4]: failed to reduce PP | effect on mean arterial pressure (MAP) ([5]; single i.v. bolus (A779, D-Pro 10 μg/kg; PD123319 1 mg/kg)): no effect on MAP | effect on mean arterial pressure (MAP) ([6]; single i.v. bolus PD123319 1 mg/kg): no effect on MAP | effect on mean arterial pressure (MAP) [7]: no effect on MAP | block of Ang-(1-7)-stimulated cAMP release (MrgD): completed blocked

CCCCc1nc(Cl)c(CO)n1Cc1ccc(-c2ccccc2-c2nn[nH]n2)cc1 [losartan, losartan hydrochloride]
duration of portal pressure lowering effect post-intervention [2, 9]: up to 30 min | start of PP reduction post-injection [2, 9]: 5 min | change in PP from baseline pressure ([2]; CCl4 model, losartan 1 mg/kg i.v. bolus, 12 to 14 rats): significant (p < 0.01) reduction in PP | duration of portal pressure lowering effect post-intervention [3, 10]: up to 30 min | start of PP reduction post-injection [3, 10]: 5 min | change in PP from baseline pressure ([3]; BDL model, losartan 1 mg/kg i.v. bolus, 12 to 14 rats): significant (p < 0.01) reduction in PP | start of MAP reduction post-injection ([5]; losartan 1 mg/kg i.v. bolus): 10 min | change in MAP from baseline [5, 11]: significantly (p < 0.01) reduced MAP | start of MAP reduction post-injection ([6]; losartan 1 mg/kg i.v. bolus): 5 min | change in MAP from baseline [6, 11]: significantly (p < 0.01) reduced MAP | ligand for MasR (MasR): not a ligand for MasR

CC[C@H](C)[C@H](NC(=O)[C@H](Cc1ccc(O)cc1)NC(=O)[C@@H](NC(=O)[C@H](CCCN=C(N)N)NC(=O)[C@@H](N)CC(=O)O)C(C)C)C(=O)N[C@@H](Cc1c[nH]cn1)C(=O)N1CCC[C@@H]1C(=O)O [D-Pro, D-Pro^7-Ang-(1-7)]
time of peak plasma concentration post-injection [1]: 2 min | fate in the rat circulation following a bolus injection [1]: rapidly degraded in the rat circulation | time for circulating peptide levels to return to baseline levels after injection [1]: ≤ 5 min
